{"source": "patent US10179774B2", "about": "“Synthesis of chirally purified substituted benzothiazole diamines” (priority 2007, dated 2019)", "key": {"humans": {"system": "humans", "conditions": "cited from earlier work"}, "dogs": {"system": "dogs", "conditions": "single oral dose, 'and above'; cited from earlier work"}, "rodents [1]": {"system": "rodents"}, "monkeys": {"system": "monkeys", "conditions": "single oral dose; cited from earlier work"}, "rodents [2]": {"system": "rodents", "conditions": "single oral dose, 'and above'; cited from earlier work"}}, "data": [{"smiles": "CCCNC1CCc2nc(N)sc2C1", "note": "(stereo not shown) [pramipexole]", "values": [{"measurement": "initial single dose not tolerated", "setting": "humans; human subjects, initial single dose", "value": "greater than 0.20 mg"}, {"measurement": "dose shown to cause somnolence", "setting": "humans; humans, 'as low as'", "value": 1.5, "unit": "mg"}, {"measurement": "dose at which vomiting occurred", "setting": "dogs", "value": "≥ 0.0007", "unit": "mg/kg"}, {"measurement": "equivalent human dose of the rodent lethal dose", "setting": "rodents [1]; human equivalent of 70-105 mg/kg in rodents", "value": "7 to 12", "unit": "mg/kg"}, {"measurement": "equivalent human dose of the rodent lethal dose for a 70 kg individual", "setting": "rodents [1]; rodents, in vivo", "value": "500 to 850", "unit": "mg"}, {"measurement": "dose at which major excitation was displayed", "setting": "monkeys", "value": 3.5, "unit": "mg/kg"}, {"measurement": "doses at which death occurred", "setting": "rodents [2]", "value": "70 to 105", "unit": "mg/kg"}]}]}
